From patent US11130960B2, “Methods for conferring or enhancing herbicide resistance on plants and/or alga with protoporphyrinogen oxidase variants” (FARM HANNONG CO., LTD., priority 2014, dated 2021)

What was measured:
Test in all cases: Growth inhibition of transformed PPO-deficient E. coli BT3(ΔPPO) on LB agar medium
CyPPO8 = format: cell-based, Halothece sp. PCC 7418; conditions: 37° C., 16~20 hours
Excerpt: (§1) To test herbicide resistance of CyPPO2, CyPPO4, CyPPO8 and CyPPO12 isolated in Example 1, PPO-deficient BT3 E. coli [hereinafter, referred to as BT3(ΔPPO)] was transformed with CyPPO2, CyPPO4, CyPPO8 or CyPPO12 gene, respectively and then cultured in the presence of herbicides to examine growth inhibition of the transformed E. coli. As a negative control, Arabidopsis thaliana-derived wild-type PPO (wild-type AtPPO1) was used, and wild-type AtPPO1 has sensitivity to PPO-based herbicides and its sequence information is available in GeneBank accession no. AX084732 (a nucleotide sequence of the gene is represented by SEQ ID NO: 10, and an amino acid sequence thereof is represented by SEQ ID NO: 9). As a positive control, Mutant AtPPO1 was used, in which amino acid replacements of Y426M (replacement of tyrosine by methionine at position 426) and S305L (replacement of serine by leucine at position 305) occur in the amino acid sequence of the wild-type AtPPO1 (an amino acid sequence is represented by SEQ ID NO: 11) (Li X, Volrath S L., N D B. G., Chilcott C E, Johnson M A, Ward E R, Law M D (2003) Development of protoporphyrinogen oxidase as an efficient selection marker for Agrobacterium tumefaciens-mediated transformation of maize. Plant physiology 133:736-747).
(§2) BT3(ΔPPO) strain was provided by Hokkaido University (Japan) and it is an E. coli strain which is deficient in hemG-type PPO and has Kanamycin resistance (Watanabe et al., (2001) Dual targeting of spinach protoporphyrinogen oxidase II to mitochondria and chloroplasts by alternative use of two in-frame […] codons. JBC 2047420481).
(§3) HVE-50 autoclave from Hirayama, HS2100A electronic scale from Hansung Instrument, CB-30V clean bench from Jeio Tech, JSI-200CL incubator from JSR, 1210 type UV-visible spectrophotometer from Thermo Fisher Scientific, MQ-200 photometer from Apogee, and Bio-Rad MyCycler as PCR machine were used. The autoclave was used under conditions of 121° C. and 15 minutes, and the incubator was used at 37° C. with lighting of 160˜200 μmol m^−2 s^−1 for a culture time of 14˜20 hours. LB medium (10 g/L of Bacto-Tryptone, 5 g/L of Yeast extract, 10 g/L of sodium chloride, 15 g/L of Bacto agar) and an antibiotic Chloramphenicol (Duchefa) were used.
(§4) To clone each of the CyPPO2, CyPPO4, CyPPO8 and CyPPO12 genes isolated and amplified in Example 1 into pACBB (its structure is shown in FIG. 2), 10 μl of a solution containing 4 μl of each PPO gene, […], 1 μl of 10× buffer A, 1 μl of 10× buffer B, 1 μl of ligase (RBC, 3 unit/μl) was prepared and allowed to react at 22° C. for 30 minutes. The reaction solution was added to 100 μl of DH5 alpha competent cells, and allowed to react on ice for 20 minutes and then left at 42° C. for 40 seconds. Thereafter, the cells were left on ice for 2 minutes, and then 1 ml of LB broth was added thereto, followed by incubation with shaking at 37° C. for 1 hour. The strains having each gene insert in the culture medium were harvested, and then cultured on LB agar medium containing chloramphenicol.
(§5) For seed culture of E. coli transformed with respective genes, single colonies thereof were cultured in 3 ml of LB broth containing chloramphenicol overnight, and each 100 μl thereof was sub-cultured in 3 ml of fresh LB broth until absorbance (OD600) reached 0.5˜1. They were diluted with LB broth to absorbance (OD600) of 0.5. 10-fold dilution of this diluted solution was performed with LB broth five times. Next, 10 μl of the diluted solution of the transformed E. coli culture was dropped on LB agar medium (petri dish) containing chloramphenicol and a variety of herbicide stocks at different concentrations (0˜400 μM). The LB agar plates were incubated at 37° C. At 16˜20 hours after culture, growth inhibition was examined with the naked eye. Further, growth inhibition of the strains cultured in a medium containing Tiafenacil was examined under light (lighting of 169 μmol m^−2s^−1) and dark conditions.

wild-type AtPPO1 = molecular target: T1, wild-type AtPPO1 (Arabidopsis thaliana, UniProt P55826); format: cell-based
T1 construct: expressed in transfected cells; host or cells: E. coli BT3(ΔPPO), pACBB vector
T1 sequence (P55826 35-537): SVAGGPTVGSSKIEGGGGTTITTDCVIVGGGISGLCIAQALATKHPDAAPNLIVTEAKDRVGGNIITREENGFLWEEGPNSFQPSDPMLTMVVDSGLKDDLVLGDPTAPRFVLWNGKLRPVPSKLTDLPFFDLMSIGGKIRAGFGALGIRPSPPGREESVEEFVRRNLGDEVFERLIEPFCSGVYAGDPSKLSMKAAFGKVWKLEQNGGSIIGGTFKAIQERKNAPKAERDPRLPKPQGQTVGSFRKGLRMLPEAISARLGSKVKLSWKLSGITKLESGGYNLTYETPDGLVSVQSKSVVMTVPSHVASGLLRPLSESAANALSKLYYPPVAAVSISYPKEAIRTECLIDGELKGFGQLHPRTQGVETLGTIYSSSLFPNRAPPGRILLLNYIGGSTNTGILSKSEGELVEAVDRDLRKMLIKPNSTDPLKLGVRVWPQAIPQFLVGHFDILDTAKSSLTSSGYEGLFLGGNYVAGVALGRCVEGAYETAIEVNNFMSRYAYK
Excerpt: as §1, §2, §3, §4, §5

Mutant AtPPO1 = molecular target: T2, Mutant AtPPO1 (Arabidopsis thaliana, UniProt P55826, S305L/Y426M); format: cell-based; conditions: 37° C., 16~20 hours
T2 construct: expressed in transfected cells; host or cells: E. coli BT3(ΔPPO), pACBB vector
Excerpt: as §1, §2, §3, §4, §5

CyPPO12 = format: cell-based, Microcoleus vaginatus; conditions: 37° C., 16~20 hours
Excerpt: as §1, §2, §3, §4, §5

CyPPO4 = format: cell-based, Lyngbya sp. PCC 8106; conditions: 37° C., 16~20 hours
Excerpt: as §1, §2, §3, §4, §5

[1] = LB agar medium, 37° C., 16~20 hours

T2 sequence (P55826 35-537 S305L/Y426M): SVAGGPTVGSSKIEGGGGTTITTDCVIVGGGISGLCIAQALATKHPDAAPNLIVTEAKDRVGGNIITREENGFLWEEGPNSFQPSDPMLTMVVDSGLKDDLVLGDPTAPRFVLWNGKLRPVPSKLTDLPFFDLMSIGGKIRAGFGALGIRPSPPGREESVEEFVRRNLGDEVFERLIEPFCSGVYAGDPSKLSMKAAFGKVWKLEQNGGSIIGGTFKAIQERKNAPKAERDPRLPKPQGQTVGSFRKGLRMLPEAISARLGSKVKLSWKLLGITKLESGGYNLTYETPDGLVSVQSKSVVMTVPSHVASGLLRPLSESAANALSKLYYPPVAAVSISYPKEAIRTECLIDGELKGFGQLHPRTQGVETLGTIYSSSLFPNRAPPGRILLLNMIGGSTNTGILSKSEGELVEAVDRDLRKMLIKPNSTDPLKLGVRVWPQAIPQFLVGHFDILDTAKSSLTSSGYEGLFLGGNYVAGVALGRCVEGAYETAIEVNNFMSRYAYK

SMILES | concentration at which growth inhibition was hardly observed (CyPPO8) [µM] | concentration at which growth inhibition was not / hardly observed (Mutant AtPPO1) [µM] | concentration at which growth inhibition was not / hardly observed (CyPPO12) [µM] | concentration at which growth inhibition was hardly observed (CyPPO4) [µM] | other results
CC(C)Oc1cc(-n2nc(C(C)(C)C)oc2=O)c(Cl)cc1Cl [Oxadiazon] | 400 | 25 | 25 | – | concentration at which growth inhibition began (wild-type AtPPO1; [1]): 0.5 µM
Cc1nn(-c2cc(NS(C)(=O)=O)c(Cl)cc2Cl)c(=O)n1C(F)F [Sulfentrazone] | 400 | 25 | 25 | 400 | concentration at which growth inhibition began (wild-type AtPPO1; [1]): 0.5 µM
CCOc1cc(Oc2ccc(C(F)(F)F)cc2Cl)ccc1[N+](=O)[O-] [Oxyfluorfen] | 400 | – | – | 400 | concentration at which growth inhibition began (Mutant AtPPO1): 5 µM
C#CCN1C(=O)COc2cc(F)c(N3C(=O)C4=C(CCCC4)C3=O)cc21 [Flumioxazin] | 25 | – | 25 | 25 | –
O=C(O)c1cc(Oc2ccc(C(F)(F)F)cc2Cl)ccc1[N+](=O)[O-] [Acifluorfen] | 400 | – | – | 400 | –
COC(=O)CSc1cc(/N=c2\sc(=O)n3n2CCCC3)c(F)cc1Cl [Fluthiacet-methyl] | 400 | – | – | – | –
CC(C)N(C)S(=O)(=O)NC(=O)c1cc(-n2c(=O)cc(C(F)(F)F)n(C)c2=O)c(F)cc1Cl [Saflufenacil] | 25 | 25 | 25 | 25 | –
CC(C)=C1OC(=O)N(c2cc(OC3CCCC3)c(Cl)cc2F)C1=O [Pentoxazone] | 400 | 25 | 25 | – | –
C=CCOC(=O)C(C)(C)OC(=O)c1cc(-n2c(=O)cc(C(F)(F)F)n(C)c2=O)ccc1Cl [Butafenacil] | 25 | 25 | – | – | –
CS(=O)(=O)NC(=O)c1cc(Oc2ccc(C(F)(F)F)cc2Cl)ccc1[N+](=O)[O-] [Fomesafen] | 400 | ≤ 25 | – | 400 | concentration at which growth inhibition was observed (wild-type AtPPO1; [1]): 5 µM
COC(=O)CCNC(=O)C(C)Sc1cc(-n2c(=O)cc(C(F)(F)F)n(C)c2=O)c(F)cc1Cl (stereo not shown) [Tiafenacil] | 25 | 25 | 25 | 25 | growth at 1 μM under dark condition (wild-type AtPPO1; agar medium, 1 μM, dark condition): rather maintained; concentration at which growth was completely inhibited (wild-type AtPPO1; agar medium, both light and dark conditions): ≥ 5 µM; concentration at which growth was almost completely inhibited (wild-type AtPPO1; agar medium, light condition): 1 µM
CCOC(=O)COc1cc(-c2nn(C)c(OC(F)F)c2Cl)c(F)cc1Cl [Pyraflufen-ethyl] | 400 | 25 | 25 | – | concentration at which growth inhibition began (wild-type AtPPO1; [1]): 0.5 µM
C#CCN(C)c1c(C#N)cnn1-c1nn2c(c1Cl)CCCC2 [Pyraclonil] | 400 | 25 | 25 | – | concentration at which the strain hardly grew (wild-type AtPPO1; [1]): 25 µM
